Test results as given in patent US20060122153A1, “Antineoplastic ether lipid compounds with modifications at the sn-2 carbon” (priority 2003, published 2006).
Entries after “also recorded” stand apart in the source; their conditions may differ.

Key:
NCI-H460 = assay: NCI growth inhibition screen, non-small cell lung panel; format: cell-based, human; set-up: key: = means equivalent activity; + means that it appears to be significantly better (i.e., by ˜2x); < means it appears to be less active than ET18OCH3 (˜2x); a combination like =/+ or </+ means that activity is dependent upon the isomer; a combination like =/+ or </+ means that activity is dependent upon the isomer; settings: NCI-H460, NS cell lung; from GI50s
Method: (§1) Candidates deemed suitable for in vivo testing were then synthesized in large scale quantities and some of this material was sent to the NCI's Developmental Therapeutics Program for a battery of growth inhibitory studies against various human tumor cell lines (60 cell lines, 9 different panels). The remainder of the material was used to assess in vivo efficacy using murine tumor models. Additionally, studies were conducted on the lead candidates to discern mechanism of action with particular emphasis on these agents apoptotic ability as measured by caspase 3 activity. The details (materials and methods) for these various assays are described further in the following discussion.
(§2) Ten compounds were also sent to NCI's Drug Discovery Program for screening against numerous human tumor cell lines (9 panels total: renal ovarian, colon, CNS, non-small cell lung, leukemia, breast, melanoma, and prostate). The data are shown in FIGS. 2a-i which also include data regarding D- and L-ET-18-OCH3 (listed as L-EL and D-EL in the figures). Upon examining the data, one is struck by how 1R and 1a′S standout in comparison to the other compounds, especially for the renal, ovarian, colon, and CNS panels.

HOP-92 = assay: as above; format: cell-based, human; set-up: key: = means equivalent activity; + means that it appears to be significantly better (i.e., by ˜2x); < means it appears to be less active than ET18OCH3 (˜2x); a combination like =/+ or </+ means that activity is dependent upon the isomer; a combination like =/+ or </+ means that activity is dependent upon the isomer; settings: HOP-92, NS cell lung; from GI50s
Method: as §1, §2

A-549/ATCC = assay: as above; format: cell-based, human; set-up: key: = means equivalent activity; + means that it appears to be significantly better (i.e., by ˜2x); < means it appears to be less active than ET18OCH3 (˜2x); a combination like =/+ or </+ means that activity is dependent upon the isomer; a combination like =/+ or </+ means that activity is dependent upon the isomer; settings: NS cell lung, from GI50s
Method: as §1, §2

NCI/ADR-RES = assay: NCI growth inhibition screen, breast panel; format: cell-based, human; set-up: key: = means equivalent activity; + means that it appears to be significantly better (i.e., by ˜2x); < means it appears to be less active than ET18OCH3 (˜2x); a combination like =/+ or </+ means that activity is dependent upon the isomer; a combination like =/+ or </+ means that activity is dependent upon the isomer; settings: from GI50s
Method: as §1, §2

MDA-N = assay: NCI growth inhibition screen, breast panel; format: cell-based, human; set-up: key: = means equivalent activity; + means that it appears to be significantly better (i.e., by ˜2x); < means it appears to be less active than ET18OCH3 (˜2x); a combination like =/+ or </+ means that activity is dependent upon the isomer; a combination like =/+ or </+ means that activity is dependent upon the isomer; settings: from GI50s
Method: as §1, §2

MDA-MB-231/ATCC = assay: NCI growth inhibition screen, breast panel; format: cell-based, human; set-up: key: = means equivalent activity; + means that it appears to be significantly better (i.e., by ˜2x); < means it appears to be less active than ET18OCH3 (˜2x); a combination like =/+ or </+ means that activity is dependent upon the isomer; a combination like =/+ or </+ means that activity is dependent upon the isomer; settings: from GI50s
Method: as §1, §2

whole human blood = assay: Hemolysis assay with whole human blood; settings: whole human blood; for H10: concentration producing 10% hemolysis; for H50: concentration producing 50% hemolysis
Method: Venous blood was collected in 10 mL Vacutainer tubes containing EDTA using a 21G needle or larger.
Stock solutions of 20 mM test sample in phosphate buffered saline (PBS) were prepared as follows:
Then 270 uL of whole blood was aliquotted in duplicate mini test tubes using positive displacement pipet. Next, 30 uL of each working stock solution, in duplicate, was added to the whole blood. Next, 30 uL of PBS was added for background control. The samples were capped or sealed with Parafilm and gently mixed. The blood was incubated at 37° C. in gentle rotating water bath for 30 minutes. Final concentration of test sample was 10% of working stock solution.
Total hemolysis samples of 1,% and 10% whole blood samples in deionized water were prepared as follows:
The samples were freeze thawed 3× in liquid nitrogen then wafer bath. The samples were then centrifuged 10 minutes at 1500 RPM. Next, 100 uL of supernatant was transferred to a cuvette and 1 mL deionized water was added. The absorbance was read at 550 nm vs. water blank.
H10 and H50 were calculated by graphing Percent Total Hemolysis vs. Test Sample Concentration. The Percent Total Henolysis=(average o.d of test sample)/(average o.d. of total hemolysis sample)×100

[1] = system: DEVDase activity (Caspase 3) in U937 cell line; assay: DEVDase activity in U937 cell line; format: cell-based, human
Method: Suspension cells were seeded at density 3.2×10^5 cells per mL in RPMI-1640 medium (Bio-Whittaker) supplemented with 10% heat inactivated FBS (Bio-Whittaker). Cells were pre-incubated overnight prior to treatment with the ether lipid compounds of the invention. At treatment time cell density was 5×10^5 cells per mL. Cells were incubated with the ether lipid compounds of the invention for various periods of time, usually 6 hours. Cells were collected, washed with 1×DPBS and resuspended in 110 μl of Buffer A (10 mM BEPES-KOH, pH 7.4, 2 mM EDTA, 0.1% CHAPS, 5 mM DTT, 1:100 dilution of protease inhibitors cocktail (Sigma)-DTT and protease inhibitors should be added just before use). […]
Measurement of DEVDase activity was carried out in 100 μl volume, where 10 μg of protein was delivered in 50 μl of Buffer A and 40 μM of substrate Ac-DEVD-AMC was also delivered in 50 μl of Buffer A. All measurements were done in triplicates. Reaction was carried out for 1 hour and generation of fluorescent product of reaction (aminomethylcoumarin) was measured by reading fluorescence at 1em 460 nm (1ex 360 nm). Changes in DEVDase activity were calculated after subtraction of background fluorescence of substrate incubated without proteins, and were expressed as percent of control (DEVDase activity in untreated cells). […]

Row | SMILES | Performance as compared to ET-18-O—CH3 (NCI-H460) | Performance as compared to ET-18-O—CH3 (HOP-92) | Performance as compared to ET-18-O—CH3 (A-549/ATCC) | Performance as compared to ET-18-O—CH3 (NCI/ADR-RES) | Performance as compared to ET-18-O—CH3 (MDA-N) | Performance as compared to ET-18-O—CH3 (MDA-MB-231/ATCC) | H10 (whole human blood) [µM] | H50 (whole human blood) [µM] | DEVDase activity compared to ET-18-OCH3 (in words) [1]
1 | CCCCCCCCCCCCCCCCCCOC[C@@H](COP(=O)([O-])OCC[N+](C)(C)C)OS(C)(=O)=O [1a′S] | 0 | 0 | 0 | 0 | 0 | 0 | 800 | >2000 | equivalent to ET-18-OCH3; also recorded: more active than 1aR
2 | CCCCCCCCCCCCCCCCCCOCC(COP(=O)([O-])OCC[N+](C)(C)C)OS(C)(=O)=O (stereo not drawn) [Compound 1aR] | = | = | = | = | = | = | 1000 | >2000 | equivalent to ET-18-OCH3
